Common to all, as to type: in vivo
Data set [1] deals with Glycine max (GLXMA). Kind of data set: Post-emergence crop plant compatibility, greenhouse pot test. Summed up: (§1)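 Values are visual % damage versus untreated controls (100% = plants died) about 3 weeks after treatment. Plants in sandy loam were sprayed at the one-leaf stage, 2–3 weeks after sowing, with aqueous WP/EC preparations plus 0.5% additive at 600 l/ha; a/b/c mark different dose levels.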

The test system of data set [2] is Triticum aestivum (TRZAS). The data set is described as above. The following applies: 1.25 g/ha, vs untreated controls. Summed up: as §1
Data set [3] concerns Zea mays (ZEAMX). The description is as above. As to conditions: 1.25 g/ha, vs untreated controls. The gist of the method: as §1
Data set [4] has as its system Oryza sativa (ORYSA). Nature of the data set: Post-emergence crop plant compatibility, greenhouse pot test (also comparative test C). The gist of the method: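 Visual damage versus untreated plants (0% = like control, 100% = plants died) was scored about 3 weeks after a post-emergence spray in greenhouse pots. Treatment: one-leaf stage, WP or EC in water at 600 l/ha with 0.5% additive; a/b/c mark different dosages on the same crop.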

Data set [5] has as its system Abutilon theophrasti (ABUTH). Kind of data set: Pre-emergence herbicidal action, greenhouse pot test. The following applies: scored after about 3 weeks. The text has this: (§2) Seeds of monocotyledonous and dicotyledonous weed plants and crop plants were placed in plastic or organic planting pots and covered with soil. The compounds of the invention, formulated in the form of wettable powders (WP) or as emulsion concentrates (EC), were then applied to the surface of the covering soil as aqueous suspension or emulsion with addition of 0.5% additive at a water application rate equivalent to 600 l/ha (converted). After the treatment, the pots were placed in a greenhouse and kept under good growth conditions for the test plants. After about 3 weeks, the effect of the preparations was scored visually in comparison with untreated controls as percentages. For example, 100% activity=the plants have died, 0% activity=like control plants.
(§3) Tables B1 to B10 below show the effects of selected compounds of the general formula (I) according to Tables I.1 to I.33 on various harmful plants and at an application rate corresponding to 80 g/ha and less, which were obtained by the experimental method specified above. The appendices “a”, “b” and “c” give differentiation by different dosage with otherwise the same harmful plants tested.

Data set [6] has as its system Alopecurus myosuroides (ALOMY). The data set is described as above. The following applies: scored after about 3 weeks.
From the text: as §2, §3

Data set [7] deals with Amaranthus retroflexus (AMARE). Described as above. The following applies: scored after about 3 weeks.
From the text: as §2, §3

Data set [8] has as its system Avena fatua (AVEFA). The description is as above. As to conditions: 80 g/ha, scored after about 3 weeks.
From the text: as §2, §3

Data set [9] deals with Digitaria sanguinalis (DIGSA). The data set is described as above. The following applies: scored after about 3 weeks.
From the text: as §2, §3

Data set [10] concerns Echinochloa crus-galli (ECHCG). The data set is described as above. The following applies: 80 g/ha, scored after about 3 weeks.
From the text: as §2, §3

The subject of data set [11] is Lolium rigidum (LOLRI). Described as above. As to conditions: 80 g/ha, scored after about 3 weeks.
From the text: as §2, §3

Data set [12] relates to Matricaria inodora (MATIN). The description is as above. The following applies: scored after about 3 weeks.
From the text: as §2, §3

Data set [13] concerns Pharbitis purpurea (PHBPU). Described as above. As to conditions: scored after about 3 weeks.
From the text: as §2, §3

The test system of data set [14] is Veronica persica (VERPE). Described as above. The following applies: scored after about 3 weeks.
From the text: as §2, §3

As for `COCCOC(=O)COc1ccccc1Oc1cc(-n2c(=O)cc(C(F)(F)F)n(C)c2=O)c(F)cc1Cl` [I.7-1, 2-Methoxyethyl (2-{2-chloro-4-fluoro-5-[3-methyl-2,6-dioxo-4-(trifluoromethyl)-3,6-dihydropyrimidin-1(2H)-yl]phenoxy}phenoxy)acetate], the “Post-emergence action against GLXMA in %” value in [1] (1.25 g/ha), in data set [1] (5 g/ha) and in [1] (20 g/ha) was 10% in each case. Further, in data set [2], the “Post-emergence action against TRZAS (crop plant compatibility)” value worked out at 20%. Also, the “Post-emergence action against ZEAMX (crop plant compatibility)” value in data set [3] turned out to be 20%. Also, the “compatibility with respect to the crop plant Oryza sativa (ORYSA) by comparison with literature compound a-17 / 3-14” value in data set [4] (application rate of 1.25 g per hectare, table C5) is “distinct improvement in compatibility”. Moreover, in [4] (comparative test C, application rate 1.25 g/ha, crop plant compatibility), the “ORYSA (efficacy in %)” value is reported as 0%. The “Pre-emergence action against ABUTH in %” value in data set [5] (20 g/ha) and in data set [5] (80 g/ha) was 100% each time. Also, the “Pre-emergence action against ALOMY in %” value in data set [6] (20 g/ha) was determined as 80%; in [6] (80 g/ha), 100%. The “Pre-emergence action against AMARE in %” value in [7] (20 g/ha) and in data set [7] (80 g/ha) was 100% throughout. The “Pre-emergence action against AVEFA in %” value in [8] was determined as 100%. The “Pre-emergence action against DIGSA in %” value in data set [9] (20 g/ha) and in [9] (80 g/ha) was 100% throughout. Besides, in data set [10], the “Pre-emergence action against ECHCG in %” value was 90%. The “Pre-emergence action against LOLRI in %” value in data set [11] is 100%. The “Pre-emergence action against MATIN in %” value in data set [12] (20 g/ha) and in [12] (80 g/ha) was 100% each time. Besides, the “Pre-emergence action against PHBPU in %” value in data set [13] (20 g/ha) and in [13] (80 g/ha) was 100% in each case. Further, the “Pre-emergence action against VERPE in %” value in data set [14] (20 g/ha) and in data set [14] (80 g/ha) was 100% in each case.

The values above are taken from patent US20240025862A1, “SUBSTITUTED N-PHENYLURACILS AND SALTS THEREOF, AND USE THEREOF AS HERBICIDAL ACTIVE SUBSTANCES” (Bayer Aktiengesellschaft, priority 2020, published 2024).
